The compounds below were run against T1, PI3Kδ (Homo sapiens, UniProt O00329) (assay: PI3Kδ Alphascreen assay).
T1 construct: Full length p110 subunits of PI3k α, β and δ, N-terminally labeled with polyHis tag; polyHis (N); made in house; host or cells: Sf9 insect cells (baculovirus)
Type: biochemical

T1 sequence (O00329 whole entry): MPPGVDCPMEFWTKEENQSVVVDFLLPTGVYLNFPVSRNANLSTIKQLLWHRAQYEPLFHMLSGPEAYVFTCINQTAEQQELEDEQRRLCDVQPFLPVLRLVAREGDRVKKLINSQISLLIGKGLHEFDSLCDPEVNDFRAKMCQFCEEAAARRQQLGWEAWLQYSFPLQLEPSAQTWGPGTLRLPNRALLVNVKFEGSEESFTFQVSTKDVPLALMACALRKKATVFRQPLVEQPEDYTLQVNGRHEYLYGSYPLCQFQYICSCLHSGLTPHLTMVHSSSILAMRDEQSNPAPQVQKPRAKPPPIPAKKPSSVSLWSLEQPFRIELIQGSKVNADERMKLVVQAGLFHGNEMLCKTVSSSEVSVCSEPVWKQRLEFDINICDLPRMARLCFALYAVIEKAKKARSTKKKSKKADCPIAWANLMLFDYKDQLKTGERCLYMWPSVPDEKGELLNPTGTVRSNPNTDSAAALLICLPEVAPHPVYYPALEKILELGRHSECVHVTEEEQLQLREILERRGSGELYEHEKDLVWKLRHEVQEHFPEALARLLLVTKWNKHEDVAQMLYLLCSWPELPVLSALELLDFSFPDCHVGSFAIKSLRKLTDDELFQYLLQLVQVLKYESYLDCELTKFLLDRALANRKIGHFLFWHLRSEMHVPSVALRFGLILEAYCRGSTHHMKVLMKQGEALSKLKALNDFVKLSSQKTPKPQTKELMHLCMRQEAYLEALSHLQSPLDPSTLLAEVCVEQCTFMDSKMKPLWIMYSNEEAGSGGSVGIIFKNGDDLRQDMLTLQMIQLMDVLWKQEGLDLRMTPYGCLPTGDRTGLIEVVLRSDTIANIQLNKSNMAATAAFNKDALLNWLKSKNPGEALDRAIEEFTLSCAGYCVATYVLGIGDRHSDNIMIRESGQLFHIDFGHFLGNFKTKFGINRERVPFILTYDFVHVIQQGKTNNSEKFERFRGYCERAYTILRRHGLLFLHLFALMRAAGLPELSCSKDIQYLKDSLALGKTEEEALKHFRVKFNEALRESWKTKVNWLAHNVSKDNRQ
T1 sequence (P27986 whole entry partner): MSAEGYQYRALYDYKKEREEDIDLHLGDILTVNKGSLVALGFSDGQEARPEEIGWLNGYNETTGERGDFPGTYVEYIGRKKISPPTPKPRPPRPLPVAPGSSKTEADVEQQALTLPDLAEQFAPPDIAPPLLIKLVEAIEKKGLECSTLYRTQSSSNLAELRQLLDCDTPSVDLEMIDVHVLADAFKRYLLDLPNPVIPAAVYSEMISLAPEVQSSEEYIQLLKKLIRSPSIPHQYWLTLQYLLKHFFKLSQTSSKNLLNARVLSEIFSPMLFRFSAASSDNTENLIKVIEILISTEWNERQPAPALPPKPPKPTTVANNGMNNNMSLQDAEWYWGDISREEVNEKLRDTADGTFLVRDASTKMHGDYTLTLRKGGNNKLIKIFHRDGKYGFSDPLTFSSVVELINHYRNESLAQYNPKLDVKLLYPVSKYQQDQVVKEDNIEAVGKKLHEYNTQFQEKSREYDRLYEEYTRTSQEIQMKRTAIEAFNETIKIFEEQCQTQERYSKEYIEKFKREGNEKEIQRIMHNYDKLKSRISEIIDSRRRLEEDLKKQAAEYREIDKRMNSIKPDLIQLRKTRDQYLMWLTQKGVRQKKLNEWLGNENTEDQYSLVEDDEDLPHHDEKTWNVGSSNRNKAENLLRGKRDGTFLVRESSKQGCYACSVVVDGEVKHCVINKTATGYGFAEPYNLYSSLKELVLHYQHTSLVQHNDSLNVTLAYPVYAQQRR

Row | Structure (SMILES) | Ki [nM]
1 | CC(=O)c1ccc(S(C)(=O)=O)c(-c2nc3cc(F)cc(F)c3c(Nc3cncc(N4CCOCC4)c3)c2C)c1 [1-(3-(5,7-difluoro-3-methyl-4-((5-(4-morpholinyl)-3-pyridinyl)-amino)-2-quinolinyl)-4-(methylsulfonyl)phenyl)ethanone] | 2.18
2 | Cc1c(N2CCC2=O)nc2cc(F)cc(F)c2c1Nc1cncc(N2CCOCC2)c1 [1-(5,7-difluoro-3-methyl-4-((5-(4-morpholinyl)-3-pyridinyl)-amino)-2-quinolinyl)-2-azetidinone] | 27.2
3 | Cc1c(N2CCCCC2=O)nc2cc(F)cc(F)c2c1Nc1cncc(N2CCOCC2)c1 [1-(5,7-difluoro-3-methyl-4-((5-(4-morpholinyl)-3-pyridinyl)-amino)-2-quinolinyl)-2-piperidinone] | 203
4 | Cc1c(N2CC(C)(C)CC2=O)nc2cc(F)cc(F)c2c1Nc1cncc(N2CCOCC2)c1 [1-(5,7-difluoro-3-methyl-4-((5-(4-morpholinyl)-3-pyridinyl)-amino)-2-quinolinyl)-4,4-dimethyl-2-pyrrolidinone] | 21.4
5 | Cc1c(N2CC(C)(C)CCC2=O)nc2cc(F)cc(F)c2c1Nc1cncc(N2CCOCC2)c1 [1-(5,7-difluoro-3-methyl-4-((5-(4-morpholinyl)-3-pyridinyl)-amino)-2-quinolinyl)-5,5-dimethyl-2-piperidinone] | 38.6
6 | Cc1c(N2CCC[C@@H]2C(=O)O)nc2cc(F)cc(F)c2c1Nc1cncc(N2CCOCC2)c1 [1-(5,7-difluoro-3-methyl-4-((5-(4-morpholinyl)-3-pyridinyl)-amino)-2-quinolinyl)-D-proline] | 59.9
7 | Cc1c(N2CCC[C@H]2C(=O)O)nc2cc(F)cc(F)c2c1Nc1cncc(N2CCOCC2)c1 [1-(5,7-difluoro-3-methyl-4-((5-(4-morpholinyl)-3-pyridinyl)-amino)-2-quinolinyl)-L-proline] | 9.37
8 | Cc1c(N2CCC[C@@H]2C(=O)N(C)C)nc2cc(F)cc(F)c2c1Nc1cncc(N2CCOCC2)c1 [1-(5,7-difluoro-3-methyl-4-((5-(4-morpholinyl)-3-pyridinyl)-amino)-2-quinolinyl)-N,N-dimethyl-D-prolinamide] | 10.3
9 | CNC(=O)[C@H]1CCCN1c1nc2cc(F)cc(F)c2c(Nc2cncc(N3CCOCC3)c2)c1C [1-(5,7-difluoro-3-methyl-4-((5-(4-morpholinyl)-3-pyridinyl)-amino)-2-quinolinyl)-N-methyl-D-prolinamide] | 10.4
10 | Cc1c(-c2ccc(N3CCC(O)C3)nc2)nc2cc(F)cc(F)c2c1Nc1cc(N2CCOCC2)cnc1N1CCOCC1 (stereo not drawn) [1-(5-(4-((2,5-di-4-morpholinyl-3-pyridinyl)amino)-5,7-difluoro-3-methyl-2-quinolinyl)-2-pyridinyl)-3-pyrrolidinol] | 36.3
11 | Cc1c(N2CCN(C(=O)OC(C)C)CC2)nc2cc(F)cc(F)c2c1Nc1cncc(N2CCOCC2)c1 [1-methylethyl 4-(5,7-difluoro-3-methyl-4-((5-(4-morpholinyl)-3-pyridinyl)amino)-2-quinolinyl)-1-piperazinecarboxylate] | 38.8
12 | Cc1c(N2CCN(C(=O)OCC(C)(C)C)CC2)nc2cc(F)cc(F)c2c1Nc1cncc(N2CCOCC2)c1 [2,2-dimethylpropyl 4-(5,7-difluoro-3-methyl-4-((5-(4-morpholinyl)-3-pyridinyl)amino)-2-quinolinyl)-1-piperazinecarboxylate] | 99
13 | Cc1cccc(-c2nc3cc(F)cc(F)c3c(Nc3cc(N4CCOCC4)cnc3N3CCOCC3)c2C)c1C [2-(2,3-dimethylphenyl)-N-(2,5-di-4-morpholinyl-3-pyridinyl)-5,7-difluoro-3-methyl-4-quinolinamine] | 12.9
14 | Cc1c(-c2ccc(C(F)(F)F)cc2C(F)(F)F)nc2cc(F)cc(F)c2c1Nc1cc(N2CCOCC2)cnc1N1CCOCC1 [2-(2,4-bis(trifluoromethyl)phenyl)-N-(2,5-di-4-morpholinyl-3-pyridinyl)-5,7-difluoro-3-methyl-4-quinolinamine] | 344
15 | Cc1ccc(-c2nc3cc(F)cc(F)c3c(Nc3cc(N4CCOCC4)cnc3N3CCOCC3)c2C)c(C)c1 [2-(2,4-dimethylphenyl)-N-(2,5-di-4-morpholinyl-3-pyridinyl)-5,7-difluoro-3-methyl-4-quinolinamine] | 26.8
16 | Cc1ccc(-c2nc3cc(F)cc(F)c3c(Nc3cc(N4CCOCC4)cnc3N3CCOCC3)c2C)cc1C [2-(3,4-dimethylphenyl)-N-(2,5-di-4-morpholinyl-3-pyridinyl)-5,7-difluoro-3-methyl-4-quinolinamine] | 101
17 | Cc1c(-c2cc(F)cc(F)c2)nc2ncccc2c1Nc1cc(N2CCOCC2)ccc1N1CCOCC1 [2-(3,5-difluorophenyl)-N-(2,5-di-4-morpholinylphenyl)-3-methyl-1,8-naphthyridin-4-amine] | 582
18 | Cc1c(N2CCN(CC(C)(C)C)CC2)nc2cc(F)cc(F)c2c1Nc1cncc(N2CCOCC2)c1 [2-(4-(2,2-dimethylpropyl)-1-piperazinyl)-5,7-difluoro-3-methyl-N-(5-(4-morpholinyl)-3-pyridinyl)-4-quinolinamine] | 98.8

Row | Structure (SMILES) | Ki [nM]
19 | Cc1c(N2CCN(C(=O)C3CCCC3)CC2)nc2cc(F)cc(F)c2c1Nc1cncc(N2CCOCC2)c1 [2-(4-(cyclopentylcarbonyl)-1-piperazinyl)-5,7-difluoro-3-methyl-N-(5-(4-morpholinyl)-3-pyridinyl)-4-quinolinamine] | 42
20 | Cc1c(N2CCN(S(=O)(=O)C3CCCC3)CC2)nc2cc(F)cc(F)c2c1Nc1cncc(N2CCOCC2)c1 [2-(4-(cyclopentylsulfonyl)-1-piperazinyl)-5,7-difluoro-3-methyl-N-(5-(4-morpholinyl)-3-pyridinyl)-4-quinolinamine] | 51
21 | CCS(=O)(=O)N1CCN(c2nc3cc(F)cc(F)c3c(Nc3cncc(N4CCOCC4)c3)c2C)CC1 [2-(4-(ethylsulfonyl)-1-piperazinyl)-5,7-difluoro-3-methyl-N-(5-(4-morpholinyl)-3-pyridinyl)-4-quinolinamine] | 88.4
22 | CC(=O)N1CCN(c2nc3cc(F)cc(F)c3c(Nc3cncc(N4CCOCC4)c3)c2C)CC1 [2-(4-acetyl-1-piperazinyl)-5,7-difluoro-3-methyl-N-(5-(4-morpholinyl)-3-pyridinyl)-4-quinolinamine] | 33.6
23 | Cc1c(-c2cc(Cl)ccn2)nc2cc(F)cc(F)c2c1Nc1cc(N2CCOCC2)cnc1N1CCOCC1 [2-(4-chloro-2-pyridinyl)-N-(2,5-di-4-morpholinyl-3-pyridinyl)-5,7-difluoro-3-methyl-4-quinolinamine] | 4.37
24 | Cc1c(N2CCN(C3CCCCC3)CC2)nc2cc(F)cc(F)c2c1Nc1cncc(N2CCOCC2)c1 [2-(4-cyclohexyl-1-piperazinyl)-5,7-difluoro-3-methyl-N-(5-(4-morpholinyl)-3-pyridinyl)-4-quinolinamine] | 28.4
25 | CCN1CCN(c2nc3cc(F)cc(F)c3c(Nc3cncc(N4CCOCC4)c3)c2C)CC1 [2-(4-ethyl-1-piperazinyl)-5,7-difluoro-3-methyl-N-(5-(4-morpholinyl)-3-pyridinyl)-4-quinolinamine] | 15.3
26 | Cc1c(-c2cncc(Cl)c2)nc2cc(F)cc(F)c2c1Nc1cc(N2CCOCC2)cnc1N1CCOCC1 [2-(5-chloro-3-pyridinyl)-N-(2,5-di-4-morpholinyl-3-pyridinyl)-5,7-difluoro-3-methyl-4-quinolinamine] | 11.2
27 | Cc1c(-c2ccc(N3CCC(F)(F)CC3)nc2)nc2cc(F)cc(F)c2c1Nc1cc(N2CCOCC2)cnc1N1CCOCC1 [2-(6-(4,4-difluoro-1-piperidinyl)-3-pyridinyl)-N-(2,5-di-4-morpholinyl-3-pyridinyl)-5,7-difluoro-3-methyl-4-quinolinamine] | 43.5
28 | Cc1c(-c2ccc(N3CC[C@@H](N(C)C)C3)nc2)nc2cc(F)cc(F)c2c1Nc1cc(N2CCOCC2)cnc1N1CCOCC1 [2-(6-((3R)-3-(dimethylamino)-1-pyrrolidinyl)-3-pyridinyl)-N-(2,5-di-4-morpholinyl-3-pyridinyl)-5,7-difluoro-3-methyl-4-quinolinamine] | 28.4
29 | Cc1c(-c2ccc(OCC3CC3)nc2)nc2cc(F)cc(F)c2c1Nc1cc(N2CCOCC2)cnc1N1CCOCC1 [2-(6-(cyclopropylmethoxy)-3-pyridinyl)-N-(2,5-di-4-morpholinyl-3-pyridinyl)-5,7-difluoro-3-methyl-4-quinolinamine] | 47.6
30 | Cc1c(-c2ccc(N(C)C)nc2)nc2cc(F)cc(F)c2c1Nc1cncc(N2CCOCC2)c1 [2-(6-(dimethylamino)-3-pyridinyl)-5,7-difluoro-3-methyl-N-(5-(4-morpholinyl)-3-pyridinyl)-4-quinolinamine] | 180
31 | Cc1c(-c2ccc(N(C)C)nc2)nc2cc(F)cc(F)c2c1Nc1cc(N2CCOCC2)cnc1N1CCOCC1 [2-(6-(dimethylamino)-3-pyridinyl)-N-(2,5-di-4-morpholinyl-3-pyridinyl)-5,7-difluoro-3-methyl-4-quinolinamine] | 24.4
32 | CCOc1ccc(-c2nc3cc(F)cc(F)c3c(Nc3cncc(N4CCOCC4)c3)c2C)cn1 [2-(6-ethoxy-3-pyridinyl)-5,7-difluoro-3-methyl-N-(5-(4-morpholinyl)-3-pyridinyl)-4-quinolinamine] | 291
33 | Cc1c(N2CCN(C(=O)OCC(C)C)CC2)nc2cc(F)cc(F)c2c1Nc1cncc(N2CCOCC2)c1 [2-methylpropyl 4-(5,7-difluoro-3-methyl-4-((5-(4-morpholinyl)-3-pyridinyl)amino)-2-quinolinyl)-1-piperazinecarboxylate] | 108
34 | Cc1c(-c2cc(O)ccc2S(C)(=O)=O)nc2cc(F)ccc2c1Nc1cc(N2CCOCC2)cnc1N1CCOCC1 [3-(4-((2,5-di-4-morpholinyl-3-pyridinyl)amino)-7-fluoro-3-methyl-2-quinolinyl)-4-(methylsulfonyl)phenol] | 17.5
35 | Cc1c(-c2ccccn2)nc2cc(F)cc(F)c2c1Nc1cc(C#N)cc(N2CCOCC2)c1 [3-((5,7-difluoro-3-methyl-2-(2-pyridinyl)-4-quinolinyl)amino)-5-(4-morpholinyl)benzonitrile] | 7.97
36 | Cc1ccnc(-c2nc3c(C#N)cccc3c(Nc3cncc(N4CCOCC4)c3)c2C)c1 [3-methyl-2-(4-methyl-2-pyridinyl)-4-((5-(4-morpholinyl)-3-pyridinyl)amino)-8-quinolinecarbonitrile] | 57.3

Reference: patent publication US8940724B2, “Quinoline derivitives and their uses” (Amgen Inc., priority 2009, dated 2015)
